Results on twelve compounds are retold here after US20220408731A1, “MODIFIED ANTIMICROBIAL PEPTIDES” (priority 2021, published 2022).

One assay deals with B. cinerea. The experiment in a line: Drop inoculation assay on detached Nicotiana benthamiana leaves (semi-in planta). The format is in vivo, Botrytis cinerea. The following applies: 48 h.

Values after ≈ are worked out from the molar mass of the structure shown. Bridge positions count the residues as written; N and C are the ends. Square brackets hold non-standard residues; d marks the D form. Ends that are not written are not given here. Peptide text beside a SMILES is read from it. Dab = NCC[C@H](N)C(=O)O Some results are limits rather than exact numbers.

Take “GACLKNRHSKHYGWFWYYRHCY-NH2 (cysteine pairing not given here) [GMAOe1C_V2]”: the “Gray mold symptoms, drop inoculation assay” value (“Gray mold symptoms” for short) in the assay on B. cinerea (peptide at 3 μM and 6 μM) is listed as “completely abrogated gray mold symptoms”.
In the case of `CC(C)C[C@@H]1NC(=O)[C@@H](NC(=O)[C@H](C)NC(=O)CN)CSSC[C@@H](C(=O)N[C@@H](Cc2ccc(O)cc2)C(N)=O)NC(=O)[C@H](Cc2c[nH]cn2)NC(=O)[C@H](CCCNC(=N)N)NC(=O)[C@H](Cc2ccc(O)cc2)NC(=O)[C@H](Cc2ccc(O)cc2)NC(=O)[C@H](Cc2c[nH]c3ccccc23)NC(=O)[C@H](Cc2ccccc2)NC(=O)[C@H](Cc2ccccc2)NC(=O)CNC(=O)[C@H](Cc2ccc(O)cc2)NC(=O)[C@H](Cc2c[nH]cn2)NC(=O)[C@H](CCCCN)NC(=O)[C@H](CO)NC(=O)[C@H](Cc2c[nH]cn2)NC(=O)[C@H](CCCNC(=N)N)NC(=O)[C@H](CC(N)=O)NC(=O)[C@H](CCCCN)NC1=O` [GMAOe1C_V4] (H-GACLKNRHSKHYGFFWYYRHCY-NH2; disulfide 3-21; N-terminus assumed), in the assay with Botrytis cinerea, the “MIC (μM) (SFM + 2 mM CaCl2)” value lay within 6 to 12 µM, the “MIC (μM) (SFM + 100 mM KCl)” value was 6 to 12 µM, the “MIC (μM) (SFM + 100 mM NaCl)” value was 6 µM and the “MIC (μM) SFM” value was 1.5 µM (≈ 4.25 µg/mL). For the same compound, the “Gray mold symptoms” value with B. cinerea (peptide at 3 μM and 6 μM) is “completely abrogated gray mold symptoms”.
In the case of `NCC[C@H](NC(=O)CNC(=O)[C@@H](N)Cc1ccccc1)C(=O)N[C@@H](CS)C(=O)N[C@@H](CCN)C(=O)NCC(=O)N[C@@H](Cc1ccccc1)C(=O)N[C@@H](CCN)C(=O)N[C@@H](CCN)C(=O)N[C@@H](CCN)C(=O)N[C@@H](CS)C(=O)N[C@@H](Cc1ccccc1)C(=O)N[C@@H](CS)C(=O)N[C@@H](Cc1c[nH]c2ccccc12)C(=O)N[C@@H](CCN)C(=O)N[C@@H](Cc1c[nH]c2ccccc12)C(=O)N[C@@H](CS)C(=O)O` [GMA4C_V5, FG(Dab)C(Dab)GF(Dab)(Dab)(Dab)CFCW(Dab)WC] (H-FG[Dab]C[Dab]GF[Dab][Dab][Dab]CFCW[Dab]WC-OH; N-terminus assumed), in the assay with Botrytis cinerea, the “B. cinerea MIC” value was 1.5 µM, the “MIC (μM) Botrytis cinerea” value was found to be 6 µM (≈ 11.8 µg/mL), the “SFM + 2 mM CaCl2 MIC” value is over 6 µM and the “SFM + 100 mM KCl MIC” value was over 6 µM. In addition, in the assay with Botrytis cinerea, the “SFM + 100 mM NaCl MIC” value amounted to 6 µM and the “SFM MIC” value worked out at 6 µM.
For the compound `CC(C)C[C@H](NC(=O)[C@H](CS)NC(=O)[C@H](C)NC(=O)CN)C(=O)N[C@@H](CCCCN)C(=O)N[C@@H](CC(N)=O)C(=O)N[C@@H](CCCNC(=N)N)C(=O)N[C@@H](Cc1c[nH]cn1)C(=O)N[C@@H](CO)C(=O)N[C@@H](CCCCN)C(=O)N[C@@H](Cc1c[nH]cn1)C(=O)N[C@@H](Cc1ccc(O)cc1)C(=O)NCC(=O)N[C@@H](CS)C(=O)N[C@@H](Cc1ccc(O)cc1)C(=O)N[C@@H](CS)C(=O)N[C@@H](Cc1ccc(O)cc1)C(=O)N[C@@H](Cc1ccc(O)cc1)C(=O)N[C@@H](CCCNC(=N)N)C(=O)N[C@@H](Cc1c[nH]cn1)C(=O)N[C@@H](CS)C(=O)N[C@@H](Cc1ccc(O)cc1)C(N)=O` [GMAOe1C_WT, reference compound] (H-GACLKNRHSKHYGCYCYYRHCY-NH2; N-terminus assumed), in the assay with Botrytis cinerea, the “MIC (μM) (SFM + 2 mM CaCl2)” value is over 12 µM, the “MIC (μM) (SFM + 100 mM KCl)” value is 6 to 12 µM, the “MIC (μM) (SFM + 100 mM NaCl)” value fell in the range of 3 to 6 µM and the “MIC (μM) SFM” value is 3 µM (≈ 8.18 µg/mL). Besides, the “Gray mold symptoms” value in the assay with B. cinerea (peptide at 3 μM and 6 μM) is “only effective at 6 μM”.
As for `CC[C@H](C)[C@@H]1NC(=O)[C@H](CCCNC(=N)N)NC(=O)[C@@H](NC(=O)[C@H](CCCNC(=N)N)NC(=O)CNC(=O)[C@@H](N)CO)CSSC[C@@H](C(N)=O)NC(=O)[C@H](CC(N)=O)NC(=O)[C@H](CCCCN)NC(=O)[C@H]([C@@H](C)O)NC(=O)[C@H](Cc2ccccc2)NC(=O)[C@H](Cc2ccc(O)cc2)NC(=O)[C@H](Cc2c[nH]c3ccccc23)NC(=O)[C@H](CCCNC(=N)N)NC(=O)[C@H](Cc2ccccc2)NC(=O)[C@H](CC(C)C)NC1=O` [GMA1C_V3] (H-SGRCRILFRWYFTKNC-NH2; disulfide 4-16; N-terminus assumed), in the assay on Botrytis cinerea, the “MIC (μM) (SFM + 2 mM CaCl2)” value is 6 µM, the “MIC (μM) (SFM + 100 mM KCl)” value was over 12 µM, the “MIC (μM) (SFM + 100 mM NaCl)” value stood at 3 µM and the “MIC (μM) SFM” value was found to be 1.5 µM (≈ 3.07 µg/mL).
Take `CC[C@H](C)[C@H](NC(=O)[C@H](CCCNC(=N)N)NC(=O)[C@H](CS)NC(=O)[C@H](CCCNC(=N)N)NC(=O)CNC(=O)[C@@H](N)CO)C(=O)N[C@@H](CC(C)C)C(=O)N[C@@H](Cc1ccccc1)C(=O)N[C@@H](CCCNC(=N)N)C(=O)N[C@@H](CS)C(=O)N[C@@H](Cc1ccccc1)C(=O)N[C@@H](CS)C(=O)N[C@H](C(=O)N[C@@H](CCCCN)C(=O)N[C@@H](CC(N)=O)C(=O)N[C@@H](CS)C(N)=O)[C@@H](C)O` [GMA1C_V1] (H-SGRCRILFRCFCTKNC-NH2; N-terminus assumed): in the assay with Botrytis cinerea, the “MIC (μM) (SFM + 100 mM KCl)” value is over 12 µM, the “MIC (μM) (SFM + 100 mM NaCl)” value is over 6 µM and the “MIC (μM) SFM” value was over 6 µM.
Turning to `CC[C@H](C)[C@@H]1NC(=O)[C@H](CCCNC(=N)N)NC(=O)[C@@H](NC(=O)[C@H](CCCNC(=N)N)NC(=O)CNC(=O)[C@@H](N)CO)CSSC[C@@H](C(N)=O)NC(=O)[C@H](CC(N)=O)NC(=O)[C@H](CCCCN)NC(=O)[C@H]([C@@H](C)O)NC(=O)[C@H](Cc2c[nH]c3ccccc23)NC(=O)[C@H](Cc2ccccc2)NC(=O)[C@H](Cc2c[nH]c3ccccc23)NC(=O)[C@H](CCCNC(=N)N)NC(=O)[C@H](Cc2ccccc2)NC(=O)[C@H](CC(C)C)NC1=O` [GMA1C_V2] (H-SGRCRILFRWFWTKNC-NH2; disulfide 4-16; N-terminus assumed), in the assay with Botrytis cinerea, the “MIC (μM) (SFM + 2 mM CaCl2)” value was determined as 3 µM, the “MIC (μM) (SFM + 100 mM KCl)” value was over 12 µM, the “MIC (μM) (SFM + 100 mM NaCl)” value is 3 µM and the “MIC (μM) SFM” value was in the range of 1.5 to 3 µM. Further, the “Gray mold symptoms” value with B. cinerea (peptide at 1.5 μM) is listed as “more effective than GMA1C_V1”. The “Gray mold symptoms” value in the assay on B. cinerea (peptide at 3 μM and 6 μM) was “completely abrogated gray mold symptoms”.
Consider `C[C@H](NC(=O)CN)C(=O)N[C@@H](CS)C(=O)N[C@@H](Cc1c[nH]cn1)C(=O)N[C@@H](CCCNC(=N)N)C(=O)N[C@@H](CCC(N)=O)C(=O)NCC(=O)N[C@@H](Cc1ccccc1)C(=O)NCC(=O)N[C@@H](Cc1ccccc1)C(=O)N[C@@H](C)C(=O)N[C@@H](CS)C(=O)N[C@@H](Cc1ccccc1)C(=O)N[C@@H](CS)C(=O)N[C@@H](Cc1ccc(O)cc1)C(=O)N[C@@H](CCCCN)C(=O)N[C@@H](CCCCN)C(=O)N[C@@H](CS)C(N)=O` [GMA5CA_WT, reference compound] (H-GACHRQGFGFACFCYKKC-NH2; N-terminus assumed), for which, in the assay on Botrytis cinerea, the “MIC (μM) (SFM + 2 mM CaCl2)” value was over 12 µM, the “MIC (μM) (SFM + 100 mM KCl)” value was over 12 µM, the “MIC (μM) (SFM + 100 mM NaCl)” value is over 12 µM and the “MIC (μM) SFM” value was determined as 6 µM (≈ 12.2 µg/mL).
`C[C@@H](O)[C@H](NC(=O)[C@H](CS)NC(=O)[C@H](Cc1c[nH]c2ccccc12)NC(=O)[C@H](CS)NC(=O)[C@H](CCCNC(=N)N)NC(=O)[C@H](Cc1ccccc1)NC(=O)[C@H](CC(=O)O)NC(=O)[C@H](CC(=O)O)NC(=O)[C@H](CCCNC(=N)N)NC(=O)[C@H](CS)NC(=O)[C@H](CCCNC(=N)N)NC(=O)CN)C(=O)N[C@@H](CCCCN)C(=O)N[C@@H](CC(N)=O)C(=O)N[C@@H](CS)C(=O)O` [GMA1C, reference compound] (H-GRCRDDFRCWCTKNC-OH; N-terminus assumed): in the assay on Botrytis cinerea, the “MIC (μM) (SFM + 2 mM CaCl2)” value was over 12 µM, the “MIC (μM) (SFM + 100 mM KCl)” value is over 12 µM, the “MIC (μM) (SFM + 100 mM NaCl)” value was over 12 µM and the “MIC (μM) SFM” value was over 12 µM.
Consider `N=C(N)NCCC[C@H](NC(=O)CNC(=O)[C@@H](N)Cc1ccccc1)C(=O)N[C@@H](CS)C(=O)N[C@@H](CCCNC(=N)N)C(=O)NCC(=O)N[C@@H](Cc1ccccc1)C(=O)N[C@@H](CCCNC(=N)N)C(=O)N[C@@H](CCCNC(=N)N)C(=O)N[C@@H](CCCNC(=N)N)C(=O)N[C@@H](CS)C(=O)N[C@@H](Cc1ccccc1)C(=O)N[C@@H](CS)C(=O)N[C@@H](Cc1c[nH]c2ccccc12)C(=O)N[C@@H](CCCNC(=N)N)C(=O)N[C@@H](Cc1c[nH]c2ccccc12)C(=O)N[C@@H](CS)C(=O)O` [GMA4C_V4] (H-FGRCRGFRRRCFCWRWC-OH; N-terminus assumed), for which, in the assay with Botrytis cinerea, the “B. cinerea MIC” value is 1.5 µM, the “MIC (μM) Botrytis cinerea” value amounted to 3 µM (≈ 6.89 µg/mL), the “SFM + 2 mM CaCl2 MIC” value stood at 6 µM and the “SFM + 100 mM KCl MIC” value came to 3 µM. For the same compound, in the assay on Botrytis cinerea, the “SFM + 100 mM NaCl MIC” value was found to be 3 µM and the “SFM MIC” value came to 3 µM.
On to `C[C@@H](O)[C@H](NC(=O)[C@H](CS)NC(=O)[C@H](Cc1ccccc1)NC(=O)[C@H](CS)NC(=O)[C@H](CCCNC(=N)N)NC(=O)[C@H](CCCNC(=N)N)NC(=O)[C@H](CCCNC(=N)N)NC(=O)[C@H](Cc1ccccc1)NC(=O)CNC(=O)[C@H](CCCNC(=N)N)NC(=O)[C@H](CS)NC(=O)[C@H](CCCNC(=N)N)NC(=O)CN)C(=O)N[C@H](C(=O)N[C@@H](Cc1c[nH]cn1)C(=O)N[C@@H](CS)C(N)=O)[C@@H](C)O` [GMA4AC] (H-GRCRGFRRRCFCTTHC-NH2), for which, in the assay with Botrytis cinerea, the “MIC (μM) SFM” value came out at 3 µM (≈ 5.88 µg/mL).
With `CC(C)C[C@@H]1NC(=O)[C@@H](NC(=O)[C@H](C)NC(=O)CN)CSSC[C@@H](C(=O)N[C@@H](Cc2ccc(O)cc2)C(N)=O)NC(=O)[C@H](Cc2c[nH]cn2)NC(=O)[C@H](CCCNC(=N)N)NC(=O)[C@H](Cc2ccc(O)cc2)NC(=O)[C@H](Cc2ccc(O)cc2)NC(=O)[C@H](Cc2c[nH]c3ccccc23)NC(=O)[C@H](Cc2ccccc2)NC(=O)[C@H](Cc2c[nH]c3ccccc23)NC(=O)CNC(=O)[C@H](Cc2ccc(O)cc2)NC(=O)[C@H](Cc2c[nH]cn2)NC(=O)[C@H](CCCCN)NC(=O)[C@H](CO)NC(=O)[C@H](Cc2c[nH]cn2)NC(=O)[C@H](CCCNC(=N)N)NC(=O)[C@H](CC(N)=O)NC(=O)[C@H](CCCCN)NC1=O` [GMAOe1C_V3] (H-GACLKNRHSKHYGWFWYYRHCY-NH2; disulfide 3-21; N-terminus assumed), in the assay on Botrytis cinerea, the “MIC (μM) (SFM + 2 mM CaCl2)” value lay in the range of 3 to 6 µM, the “MIC (μM) (SFM + 100 mM KCl)” value fell in the range of 6 to 12 µM, the “MIC (μM) (SFM + 100 mM NaCl)” value was in the range of 2 to 3 µM and the “MIC (μM) SFM” value was 1.5 µM (≈ 4.31 µg/mL). Also, the “Gray mold symptoms” value in the assay with B. cinerea (peptide at 1.5 μM) is on record as “more effective than GMAOe1C_V4 or GMAOe1C_WT”. Besides, the “Gray mold symptoms” value in the assay with B. cinerea (peptide at 3 μM and 6 μM) is recorded as “completely abrogated gray mold symptoms”.
